Results as given in publication PMC12040169 (PLOS Biology, 2025).

Experiment: in vitro
Conditions: human, hela cells, % viability

First: Cc1cc(C)c(C)c(S(=O)(=O)Nc2ccc(O)c(Sc3nc[nH]n3)c2)c1C [CBK267012]
Second: Cc1cc(C)c(S(=O)(=O)NC(CC(=O)O)c2ccccc2)cc1C (stereo not drawn) [CBK267081]
The viability at 28.5 h, 10 µM of the first is lower: 66.6% for the first, 86.8% for the second.

Going from CC(C)(C)NS(=O)(=O)c1ccc(NC(=O)COc2ccc3ccccc3c2Br)cc1 [CBK267015] to CC(NS(=O)(=O)c1ccc(CCC(=O)O)cc1)c1ccccc1 (stereo not drawn) [CBK267058], the viability at 28.5 h, 10 µM falls from 96.5% to 88.1%.

First: O=C(CSCc1ccc(Cl)cc1)Nc1ccc(S(=O)(=O)N2CCCCCC2)cc1 [CBK267017]
Second: O=S(=O)(c1ccc(Cl)cc1)N1CCN(S(=O)(=O)N2CCCCC2)CC1 [CBK267075]
The viability at 28.5 h, 10 µM of the first is higher: 112% for the first, 96.1% for the second.

First: COc1ccc(NC(=O)Nc2nn(Cc3c(F)cccc3Cl)cc2Cl)cc1OC [CBK267019]
Second: NS(=O)(=O)c1ccc(NC(=S)Nc2nn(Cc3ccc(Cl)cc3Cl)cc2Cl)cc1 [CBK267020]
The viability at 28.5 h, 10 µM of the first is lower: 89.3% for the first, 90.6% for the second.

Compared with S=C(NCc1ccco1)Nc1nn(Cc2ccc(Cl)cc2Cl)cc1Cl [CBK267021], COc1ccc(Cl)cc1NC(=S)NCCn1cc(Cl)cn1 [CBK267063] is higher in viability at 28.5 h, 10 µM: 80.7% for the first, 89.8% for the second.

Compared with Cc1cc(C)nc(Nc2n[nH]c(Cc3ccccc3)n2)n1 [CBK267023], Cc1cc(C)nc(Nc2n[nH]c(-c3cccnc3)n2)n1 [CBK267120] is higher in viability at 28.5 h, 10 µM: 96.3% for the first, 98% for the second.

First: NS(=O)(=O)c1ccc(NC(=S)NNC(=O)C2c3ccccc3Oc3ccccc32)cc1 [CBK267024]
Second: CC(C)(C)OC(=O)NNC(=S)Nc1ccc(S(N)(=O)=O)cc1 [CBK267107]
The viability at 28.5 h, 10 µM of the first is lower: 99.2% for the first, 100% for the second.

Going from CCN1CCN(C(=O)c2ccccc2N(Cc2ccccc2)S(C)(=O)=O)CC1 [CBK267028] to CCN1CCN(C(=O)c2ccc(CN(c3ccc(C)c(C)c3)S(C)(=O)=O)cc2)CC1 [CBK267132], the viability at 28.5 h, 10 µM falls from 101% to 92.6%.

Compared with Cc1nn(C)c(C)c1CN1CCN(C(=S)Nc2ccc(S(N)(=O)=O)cc2)CC1 [CBK267030], Cc1cc(CNC(=S)Nc2ccc(S(N)(=O)=O)cc2)nn1C [CBK267077] is higher in viability at 28.5 h, 10 µM: 94.1% for the first, 98.7% for the second.

First: O=C(Nc1ccc2c(c1)nc1n2CCN(Cc2ccccc2)C1)NC1CCCCC1 [CBK267033]
Second: Cc1cc(=O)oc2cc(NC(=S)N3CCN(C/C=C/c4ccccc4)CC3)ccc12 [CBK267045]
The viability at 28.5 h, 10 µM of the first is higher: 109% for the first, 92% for the second.

First: O=C(Cn1cc(/C=C/c2[nH]c(=O)[nH]c(=O)c2[N+](=O)[O-])c2ccccc21)Nc1ccc2c(c1)OCO2 [CBK267036]
Second: CC(=O)c1ccc(-c2ccc(/C=C\c3[nH]c(=O)[nH]c(=O)c3[N+](=O)[O-])o2)cc1 [CBK267038]
The viability at 28.5 h, 10 µM of the first is lower: 80.8% for the first, 90.7% for the second.

First: COC(=O)c1c(NC(=S)NCc2ccc(S(N)(=O)=O)cc2)sc2c1CCC(C)C2 (stereo not drawn) [CBK267039]
Second: COC(=O)c1c(NC(=S)NCc2ccccn2)sc2c1CCC2 [CBK267090]
The viability at 28.5 h, 10 µM of the first is higher: 97.6% for the first, 95.9% for the second.

First: O=C(CCc1ccc(O)c(O)c1)NNC(=S)Nc1ccc(F)cc1F [CBK267041]
Second: COc1cc([N+](=O)[O-])ccc1NC(=S)NCc1ccc(S(N)(=O)=O)cc1 [CBK267067]
The viability at 28.5 h, 10 µM of the first is higher: 114% for the first, 100% for the second.

First: O=C(Nc1cccc(C(F)(F)F)c1)Nc1cccc(S(=O)(=O)N2CCOCC2)c1 [CBK267043]
Second: COc1ccccc1CNC(=O)c1ccc(Cl)c(S(=O)(=O)N2CCOCC2)c1 [CBK267060]
The viability at 28.5 h, 10 µM of the first is higher: 99% for the first, 69.3% for the second.

Compared with CN1CCN(C(=O)CN(C)S(=O)(=O)c2ccc3ccccc3c2)CC1 [CBK267053], CCOC(=O)c1c(NC(=S)N2CCN(S(C)(=O)=O)CC2)sc(C)c1-c1ccccc1 [CBK267072] is higher in viability at 28.5 h, 10 µM: 96.4% for the first, 98% for the second.

Going from COC(=O)c1c(NC(=S)NCc2ccccn2)sc(C(=O)N(C)C)c1C [CBK267055] to COC(=O)c1sc(NC(=S)Nc2ccn(C)n2)c(C(=O)OC)c1C [CBK267078], the viability at 28.5 h, 10 µM rises from 98.8% to 99.5%.

First: O=C(NCc1ccc2c(c1)OCO2)C1CN(S(=O)(=O)c2ccccc2)CCN1S(=O)(=O)c1ccccc1 (stereo not drawn) [CBK267059]
Second: CCn1cc(C(=O)O)c(=O)c2cnc(N3CCN(C(=S)NC(=O)C4c5ccccc5Oc5ccccc54)CC3)nc21 [CBK267114]
The viability at 28.5 h, 10 µM of the first is higher: 102% for the first, 91.6% for the second.

Compared with Cc1ccc(-c2c(C(=O)NNC(=S)NCC3CCCO3)csc2C)cc1 (stereo not drawn) [CBK267062], S=C(NCc1ccc(-n2cccn2)cc1)NCC1CCCO1 (stereo not drawn) [CBK267083] is higher in viability at 28.5 h, 10 µM: 86.6% for the first, 96.7% for the second.

Going from Cc1ccc(NC(=O)CC(C(=O)O)N(C)C)cc1 (stereo not drawn) [CBK267068] to COc1ccc(NC(=O)CC(C(=O)O)N2CCCCC2)cc1 (stereo not drawn) [CBK267115], the viability at 28.5 h, 10 µM rises from 81.7% to 101%.

Going from Cc1nn(C)cc1CN1CCN(C(=S)NCCc2ccccc2)CC1 [CBK267069] to COC(=O)c1c(NC(=S)N2CCN(Cc3c(C)nn(C)c3C)CC2)sc2c1CCC(C)C2 (stereo not drawn) [CBK267103], the viability at 28.5 h, 10 µM falls from 98.4% to 94.9%.

Going from COC(=O)c1c(NC(=S)NNC(=O)c2nn(C)cc2I)sc2c1CCC2 [CBK267074] to COC(=O)c1cc(C)sc1NC(=S)Nc1cnn(Cc2cccc3ccccc23)c1 [CBK267098], the viability at 28.5 h, 10 µM rises from 97.7% to 101%.

Going from Cc1cc(C)nc(Nc2n[nH]c(-c3ccc(NC(=O)Nc4ccccc4)cc3)n2)n1 [CBK267076] to Cc1cc(C)nc(Nc2n[nH]c(-c3ccc(N)cc3)n2)n1 [CBK267131], the viability at 28.5 h, 10 µM rises from 92.7% to 99.5%.

First: Cc1[nH]c2ccc(C(=O)O)cc2c1CC(=O)O [CBK267080]
Second: O=C(O)CSc1nc2ccccc2n1CC(=O)O [CBK267128]
The viability at 28.5 h, 10 µM of the first is lower: 96.3% for the first, 102% for the second.

Compared with Cc1ccc([N+](=O)[O-])cc1/C=C(/C#N)c1nc2ccccc2s1 [CBK267085], Cc1ccccc1C(=O)Nc1cccc(NC(=O)c2nc[nH]n2)c1 [CBK267108] is lower in viability at 28.5 h, 10 µM: 95.4% for the first, 86.6% for the second.

First: O=C(CC(C(=O)O)N1CCOCC1)Nc1ccc(Cl)cc1 (stereo not drawn) [CBK267086]
Second: CC(=O)Nc1ccc(S(=O)(=O)NCc2ccc3[nH]c4c(c3c2)CCCC4)cc1 [CBK267122]
The viability at 28.5 h, 10 µM of the first is higher: 105% for the first, 87.1% for the second.

Going from Cc1cc(C)cc(C(=O)NC(=S)Nc2sc(C)c(C)c2C#N)c1 [CBK267089] to Cc1nn(Cc2c(F)cccc2Cl)c(C)c1NC(=S)Nc1ccc(S(N)(=O)=O)cc1 [CBK267121], the viability at 28.5 h, 10 µM rises from 92.1% to 101%.

Going from CCc1c(C)c2cc(Cl)c(O)c(CN3CCCC3)c2oc1=O [CBK267099] to Cc1ccc2oc(-c3cc(NC(=O)Cn4cnc5c(=O)n(C)c(=O)n(C)c54)ccc3O)nc2c1 [CBK267112], the viability at 28.5 h, 10 µM falls from 105% to 95.1%.

Compared with c1ccc2c(c1)nc(-c1cscn1)n2CCCCc1nnn[nH]1 [CBK267110], FC(F)(F)c1ccccc1NC(=S)Nc1ncn(Cc2ccc(Cl)c(Cl)c2)n1 [CBK267130] is lower in viability at 28.5 h, 10 µM: 93.7% for the first, 87.1% for the second.

First: O=C(O)CC(NCc1ccccc1)C(=O)Nc1ccccc1Br (stereo not drawn) [CBK267118]
Second: Cc1ccc(C)c(NC(=O)CC2C(=O)N(c3ccccc3)C(=S)N2Cc2ccco2)c1 (stereo not drawn) [CBK267119]
The viability at 28.5 h, 10 µM of the first is higher: 98% for the first, 94.3% for the second.

Going from O=C(Oc1ccc(N(C(=O)c2ccncc2)S(=O)(=O)c2cccc3cccnc23)cc1)c1ccncc1 [CBK267123] to CC(C)N(Cc1nc(-c2ccc(Cl)cc2)no1)C(=O)COc1ccc(Br)cc1Cl [CBK267126], the viability at 28.5 h, 10 µM rises from 89.5% to 111%.
